Assay results published in patent US20040052824A1, “Micellar colloidal pharmaceutical composition containing a lipophilic active principle” (priority 2000, published 2004).
Like-named read-outs stand apart in the source and are kept apart here.

Legend:
[1] = cited from earlier work
[2] = cited from earlier work; remark: listed apart in the source
[3] = dissolution trials: solubility of the active principle in the cosurfactant; assay type: physicochemical
[4] = cited from earlier work; remark: listed apart in the source
[5] = octanol/water partition coefficient

Molecule	log P [1, 5]	also measured
OC(c1cc(C(F)(F)F)nc2c(C(F)(F)F)cccc12)C1CCCCN1 (centres unmarked) [mefloquin]	3.36	
CCCSc1ccc2nc(NC(=O)OC)[nH]c2c1 [albendazole]		log P [1]: 3.22
CCN(CC)C(=O)Nc1ccc(OCC(O)CNC(C)(C)C)c(C(C)=O)c1 (centres unmarked) [celiprolol]	2.07	
COC(=O)[C@@H]1[C@H]2C[C@H]3c4[nH]c5ccccc5c4CCN3C[C@@H]2CC[C@@H]1O [yohimbine]	2.73	
CC(C)(Oc1ccc(CCNC(=O)c2ccc(Cl)cc2)cc1)C(=O)O [bezafibrate]	3.53	
CN(C/C=C/C#CC(C)(C)C)Cc1cccc2ccccc12 [terbinafin]	5.42	
Cc1c2ccncc2c(C)c2c1[nH]c1ccccc12 [ellipticine]	4.80	
CC[C@H](C)C(=O)O[C@H]1CCC=C2C=C[C@H](C)[C@H](CC[C@@H]3C[C@@H](O)CC(=O)O3)[C@H]21 [mevastatin]	3.52	
Cc1nccn1CC1CCc2c(c3ccccc3n2C)C1=O (centres unmarked) [ondansetron]	2.63	
CC(=O)Oc1c(Br)cc(Cl)cc1C(=S)Nc1ccc(Br)cc1 [brotianide]	5.30	
COC(=O)Nc1nc2ccc(Sc3ccccc3)cc2[nH]1 [fenbendazole]	4.26	
Cc1cc(C(C#N)c2ccc(Cl)cc2)c(Cl)cc1NC(=O)c1cc(I)cc(I)c1O (centres unmarked) [closantel]	> 7	
CC(=O)O[C@H]1C(=O)[C@@]2(C)[C@H]([C@H](OC(=O)c3ccccc3)[C@]3(O)C[C@H](OC(=O)[C@H](O)[C@@H](NC(=O)c4ccccc4)c4ccccc4)C(C)=C1C3(C)C)[C@]1(OC(C)=O)CO[C@@H]1C[C@@H]2O [paclitaxel]		solubility in water [2]: insoluble in water
CCOC(=O)C1=C(C)NC(C)=C(C(=O)OC)C1c1cccc([N+](=O)[O-])c1 (centres unmarked) [nitrendipine]	3.7	
O=C1c2ccccc2C(=O)C1c1ccccc1 [phenyl indanedione]	2.90	
CC(=O)Oc1c(I)cc(I)cc1C(=O)Nc1ccc(Cl)cc1 [clioxanide]	5.45	
CCC(C)n1ncn(-c2ccc(N3CCN(c4ccc(OCC5COC(Cn6cncn6)(c6ccc(Cl)cc6Cl)O5)cc4)CC3)cc2)c1=O (centres unmarked) [itraconazole]	5.68	
O=C(Nc1ccc(Br)cc1)c1cc(Br)ccc1O [dibromosalan]	5.18	
CSc1nc2cc(Cl)c(Oc3cccc(Cl)c3Cl)cc2[nH]1 [triclabendazole]	6.45	
CC(C)(C)c1ccc(C(O)CCCN2CCC(C(O)(c3ccccc3)c3ccccc3)CC2)cc1 (centres unmarked) [terfenadine]	3.22	
c1ccc2[nH]c(-c3cscn3)nc2c1 [tiabendazole]	2.31	

Molecule	log P [1, 5]	also measured
O=C(Nc1ccc(Br)cc1)c1cc(Br)cc(Br)c1O [tribromosalan]	5.86	
CCCc1nc2c(C)cc(-c3nc4ccccc4n3C)cc2n1Cc1ccc(-c2ccccc2C(=O)O)cc1 [telmisartan]	4.8	
CC(C)C(=O)Nc1ccc([N+](=O)[O-])c(C(F)(F)F)c1 [flutamide]	3.5	
OCCSCCCCCCCCCCSCCO [tiadenol]	4.58	
Cc1c([N+](=O)[O-])cc(C(C)(C)C)c(O)c1C(=O)Nc1ccc(Br)cc1C(F)(F)F [bromoxanide]	5.65	
CO[C@@H]1[C@@H](O[C@@H]2O[C@H](C)[C@@H](O[C@H]3C[C@@](C)(O)[C@@H](OC(=O)CC(C)C)[C@H](C)O3)[C@H](N(C)C)[C@H]2O)[C@@H](CC=O)C[C@@H](C)[C@@H](O)/C=C/C=C/C[C@@H](C)OC(=O)C[C@H]1OC(C)=O [josamycin]	2.39	
CC(=O)O[C@@]12CO[C@@H]1C[C@H](O)[C@@]1(C)C(=O)[C@H](O)C3=C(C)[C@@H](OC(=O)[C@H](O)[C@@H](NC(=O)OC(C)(C)C)c4ccccc4)C[C@@](O)([C@@H](OC(=O)c4ccccc4)[C@H]21)C3(C)C [docetaxel]		solubility in water [2]: insoluble in water
Cc1cccc(Nc2ccccc2C(=O)O)c1C [mefenamic acid]	5.3	
O=C(Nc1ccc(Oc2ccc(Cl)cc2)c(Cl)c1)c1cc(I)cc(I)c1O [rafoxanide]	8.75	
CC1=C(/C=C/C(C)=C/C=C/C(C)=C\C(=O)O)C(C)(C)CCC1 [isotretinoin, 13-cis-retinoic acid]		solubility in monoethyl ether of diethylene glycol (Transcutol) ([3]; cosurfactant Transcutol): 3%
CC(=O)[C@H]1CC[C@H]2[C@@H]3CCC4=CC(=O)CC[C@]4(C)[C@H]3CC[C@]12C [progesterone]		solubility in propylene glycol monocaprylate (Capryol) ([3]; cosurfactant Capryol): 5%
CC1=C(/C=C/C(C)=C/C=C/C(C)=C/CO)C(C)(C)CCC1 [retinol]	5.68	
CC[C@H]1OC(=O)[C@H](C)[C@@H](O[C@H]2C[C@@](C)(OC)[C@@H](O)[C@H](C)O2)[C@H](C)[C@@H](O[C@@H]2O[C@H](C)C[C@H](N(C)C)[C@H]2O)[C@](C)(O)C[C@@H](C)/C(=N\OCOCCOC)[C@H](C)[C@@H](O)[C@]1(C)O [roxithromycin]	~2.5	
CCOC(=O)C(C)(C)Oc1ccc(Cl)cc1 [clofibrate]	3.65	
ivermectin		partition coefficient chloroform/water: log P ([4]; chloroform/water): 3; partition coefficient ethyl acetate/water: log P ([4]; ethyl acetate/water): 4; solubility in water [2]: practically insoluble in water
CC[C@H](C)C(=O)O[C@H]1C[C@@H](C)C=C2C=C[C@H](C)[C@H](CC[C@@H]3C[C@@H](O)CC(=O)O3)[C@H]21 [lovastatin]	4.04	
Cc1ccc(C)c(OCCCC(C)(C)C(=O)O)c1 [gemfibrozil]	3.90	
CC1=CC(=O)c2ccccc2C1=O [menadione]	8	
CC(C)(Oc1ccc(C2CC2(Cl)Cl)cc1)C(=O)O (centres unmarked) [ciprofibrate]	3.15	
O=C(Nc1cc(Cl)cc(Cl)c1O)c1c(O)c(Cl)cc(Cl)c1Cl [oxyclozanide]	5.35	
COC(=O)Nc1nc2ccc(C(=O)c3ccccc3)cc2[nH]1 [mebendazole]	3.10	
